Among the data in patent US20250114338A1, “TETRAHYDRO-PYRIDO[3,4-b]INDOLE ESTROGEN RECEPTOR MODULATORS AND USES THEREOF” (Genentech, Inc., priority 2014, published 2025) are EC50 values, retold here.

In this assay the test system is ER-alpha MCF7. Description: ER-alpha MCF7 HCS EC50; stated as measured by in vitro cell proliferation assays of Examples 902 and 903. The class given is cell-based. As to conditions: Homo sapiens, MCF7, MCF7 cells; Table 2. The method, boiled down: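 MCF7 cells seeded 1000-2000 cells/well for 16 h, then treated with nine-point 1:2 DMSO dilution series in quadruplicate at 37 °C, 5% CO2 for 4 days. Viable cells quantified by CellTiter-Glo ATP luminescence; EC50 calculated. Controls: fulvestrant at final 100 nM, DMSO 0.2% v/v.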
Turning to `C[C@@H]1Cc2c([nH]c3ccccc23)[C@@H](c2c(F)cc(OCCN3CC(C)(CF)C3)cc2F)N1CC(C)(C)F` [Example 160, (1R,3R)-1-[2,6-difluoro-4-[2-[3-(fluoromethyl)-3-methyl-azetidin-1-yl]ethoxy]phenyl]-2-(2-fluoro-2-methyl-propyl)-3-methyl-1,3,4,9-tetrahydropyrido[3,4-b]indole], the EC50 – broadly, the concentration giving half of the maximal effect – amounted to 0.285 nM.

On to `C[C@@H]1Cc2c([nH]c3ccc(F)cc23)[C@@H](c2c(F)cc(OC3CN(CCCF)C3)cc2F)N1CC(F)F` [Example 385, (1R,3R)-1-(2,6-difluoro-4-((1-(3-fluoropropyl)azetidin-3-yl)oxy)phenyl)-2-(2,2-difluoroethyl)-6-fluoro-3-methyl-2,3,4,9-tetrahydro-1H-pyrido[3,4-b]indole], for which the EC50 came out at 0.074 nM.

As to `C[C@@H]1Cc2c([nH]c3ccccc23)[C@@H](c2c(F)cc(OC3CN(CCCF)C3)cc2F)N1C[C@](C)(F)CO` [Example 233, 3-((1R,3R)-1-(2,6-difluoro-4-((1-(3-fluoropropyl)azetidin-3-yl)oxy)phenyl)-3-methyl-1,3,4,9-tetrahydro-2H-pyrido[3,4-b]indol-2-yl)-2-fluoro-2-methylpropan-1-ol], the EC50 is 0.133 nM.

Take `C[C@@H]1Cc2c([nH]c3ccccc23)[C@@H](c2c(F)cc(OCCN3CC(CF)C3)cc2F)N1C[C@H](CO)C(F)(F)F` [Example 319, (R)-2-(((1R,3R)-1-(2,6-difluoro-4-(2-(3-(fluoromethyl)azetidin-1-yl)ethoxy)phenyl)-3-methyl-1,3,4,9-tetrahydro-2H-pyrido[3,4-b]indol-2-yl)methyl)-3,3,3-trifluoropropan-1-ol]: the EC50 was determined as 0.43 nM.

For the compound `C[C@@H]1Cc2c([nH]c3ccccc23)[C@@H](c2c(F)cc(NC3CN(CCCF)C3)cc2F)N1CC(F)F` [Example 430, N-[4-[(1R,3R)-2-(2,2-difluoroethyl)-3-methyl-1,3,4,9-tetrahydropyrido[3,4-b]indol-1-yl]-3,5-difluoro-phenyl]-1-(3-fluoropropyl)azetidin-3-amine], the EC50 turned out to be 0.065 nM.

Consider `C[C@@H]1Cc2c([nH]c3ccccc23)[C@@H](c2c(F)cc(NCCN3CC(CF)C3)cc2F)N1C[C@@](C)(F)CO` [Example 352, (R)-3-((1R,3R)-1-(2,6-difluoro-4-((2-(3-(fluoromethyl)azetidin-1-yl)ethyl)amino)phenyl)-3-methyl-1,3,4,9-tetrahydro-2H-pyrido[3,4-b]indol-2-yl)-2-fluoro-2-methylpropan-1-ol], for which the EC50 turned out to be 0.685 nM.

Turning to `C[C@@H]1Cc2c([nH]c3cc(F)ccc23)[C@@H](c2c(F)cc(NC3CN(CCCF)C3)cc2F)N1CC(F)(F)F` [Example 396, N-(3,5-difluoro-4-((1R,3R)-7-fluoro-3-methyl-2-(2,2,2-trifluoroethyl)-2,3,4,9-tetrahydro-1H-pyrido[3,4-b]indol-1-yl)phenyl)-1-(3-fluoropropyl)azetidin-3-amine], the EC50 was 0.11 nM.

`C[C@H]1Cc2c([nH]c3c(F)cccc23)[C@H](c2c(F)cc(NC3CN(CCCF)C3)cc2F)N1CC(F)(F)CO` [Example 422, 3-((1S,3S)-1-(2,6-difluoro-4-((1-(3-fluoropropyl)azetidin-3-yl)amino)phenyl)-8-fluoro-3-methyl-3,4-dihydro-1H-pyrido[3,4-b]indol-2(9H)-yl)-2,2-difluoropropan-1-ol]: the EC50 turned out to be 37.1 nM.

As to `C[C@@H]1Cc2c([nH]c3ccccc23)[C@@H](c2c(F)cc(OC3CN(CCCF)C3)cc2F)N1C(=O)C1(C)CC1` [Example 226, [(1R,3R)-1-[2,6-difluoro-4-[1-(3-fluoropropyl)azetidin-3-yl]oxy-phenyl]-3-methyl-1,3,4,9-tetrahydropyrido[3,4-b]indol-2-yl]-(1-methylcyclopropyl)methanone], the EC50 turned out to be 2 nM.

In the case of `C[C@@H]1Cc2c([nH]c3ccccc23)[C@@H](c2c(F)cc(OCCN3CC(CF)C3)cc2F)N1CC(C)(C)CO` [Example 287, 3-[(1R,3R)-1-[2,6-difluoro-4-[2-[3-(fluoromethyl)azetidin-1-yl]ethoxy]phenyl]-3-methyl-1,3,4,9-tetrahydropyrido[3,4-b]indol-2-yl]-2,2-dimethyl-propan-1-ol], the EC50 worked out at 1 nM.

As to `C[C@H]1Cc2c([nH]c3ccc(F)cc23)[C@H](c2c(F)cc(NC3CN(CCCF)C3)cc2F)N1CC(F)F` [Example 390, N-(4-((1S,3S)-2-(2,2-difluoroethyl)-6-fluoro-3-methyl-2,3,4,9-tetrahydro-1H-pyrido[3,4-b]indol-1-yl)-3,5-difluorophenyl)-1-(3-fluoropropyl)azetidin-3-amine], the EC50 came to 9.7 nM.

In the case of `C[C@@H]1Cc2c([nH]c3cccc(F)c23)[C@@H](c2c(F)cc(NC3CN(CCCF)C3)cc2F)N1CC(F)(F)F` [Example 407, N-(3,5-difluoro-4-((1R,3R)-5-fluoro-3-methyl-2-(2,2,2-trifluoroethyl)-2,3,4,9-tetrahydro-1H-pyrido[3,4-b]indol-1-yl)phenyl)-1-(3-fluoropropyl)azetidin-3-amine], the EC50 turned out to be 0.12 nM.

In the case of `C[C@H]1Cc2c([nH]c3ccc(F)cc23)[C@H](c2c(F)cc(OC3CN(CCCF)C3)cc2F)N1CC(F)(F)CO` [Example 364, 3-((1S,3S)-1-(2,6-difluoro-4-((1-(3-fluoropropyl)azetidin-3-yl)oxy)phenyl)-6-fluoro-3-methyl-1,3,4,9-tetrahydro-2H-pyrido[3,4-b]indol-2-yl)-2,2-difluoropropan-1-ol], the EC50 was determined as 9 nM.

In the case of `C[C@@H]1Cc2c([nH]c3ccccc23)[C@@H](c2c(F)cc(OCCN3CC(CF)C3)cc2F)N1C(=O)C(C)(C)C` [Example 138, 1-[(1R,3R)-1-[2,6-difluoro-4-[2-[3-(fluoromethyl)azetidin-1-yl]ethoxy]phenyl]-3-methyl-1,3,4,9-tetrahydropyrido[3,4-b]indol-2-yl]-2,2-dimethyl-propan-1-one], the EC50 was 0.491 nM.

For `C[C@@H]1Cc2c([nH]c3ccccc23)[C@@H](c2ccc(OCCN3CC[C@@H](CF)C3)cc2)N1CC(C)(C)F` [Example 250, (1R,3R)-2-(2-fluoro-2-methyl-propyl)-1-[4-[2-[(3R)-3-(fluoromethyl)pyrrolidin-1-yl]ethoxy]phenyl]-3-methyl-1,3,4,9-tetrahydropyrido[3,4-b]indole], the EC50 was determined as 0.275 nM.

As for `C[C@@H]1Cc2c([nH]c3ccccc23)[C@@H](c2c(F)cc(OC3CN(CCCF)C3)cc2F)N1C[C@H](C)C(=O)O` [Example 349, (S)-3-((1R,3R)-1-(2,6-difluoro-4-((1-(3-fluoropropyl)azetidin-3-yl)oxy)phenyl)-3-methyl-1,3,4,9-tetrahydro-2H-pyrido[3,4-b]indol-2-yl)-2-methylpropanoic acid], the EC50 was found to be 2.03 nM.

For `C[C@H](COc1cc(F)c([C@@H]2c3[nH]c4ccccc4c3C[C@@H](C)N2CC(C)(C)F)c(F)c1)N1CCCC1` [Example 151, (1R,3R)-1-[2,6-difluoro-4-[(2R)-2-pyrrolidin-1-ylpropoxy]phenyl]-2-(2-fluoro-2-methyl-propyl)-3-methyl-1,3,4,9-tetrahydropyrido[3,4-b]indole], the EC50 was found to be 0.156 nM.

For the compound `C[C@@H]1Cc2c([nH]c3ccccc23)[C@@H](c2ccc(OCCN3CC(CF)C3)cc2F)N1S(C)(=O)=O` [Example 232, (1R,3R)-1-[2-fluoro-4-[2-[3-(fluoromethyl)azetidin-1-yl]ethoxy]phenyl]-3-methyl-2-methylsulfonyl-1,3,4,9-tetrahydropyrido[3,4-b]indole], the concentration for a half-maximal effect (EC50) stood at 0.192 nM.
